Results as given in patent publication US7279575B2, “Pyrimidylpyrrole derivatives active as kinase inhibitors” (Pfizer Italia S.r.l., priority 2003, dated 2007).
pIC50: −log10 of the molar value. Where “and” joins values, the source holds several entries; their conditions need not be identical. Equal entries are not always repeated. Structures can show the parent of a compound that is named as a salt.

Biological target: Cdc7/Dbf4 (Homo sapiens, UniProt O00311)
Test: Inhibition assay of Cdc7/Dbf4 activity (Dowex resin capture, 33P-ATP, MCM2 substrate)
Format: biochemical
Conditions: MCM2 6 μM, ATP 2 μM, Cdc7/Dbf4 2 nM, 60 minutes at room temperature
Method: The inhibiting activity of putative Cdc7 inhibitors and the potency of selected compounds is determined through a method of assay based on the use of Dowex resin capture technology. The assay consists of the transfer of radioactivity labeled phosphate moiety by the kinase to an acceptor substrate. The resulting 33P-labeled product is separated from unreacted tracer, transferred into a scintillation cocktail and light emitted is measured in a scintillation counter.
Inhibition Assay of Cdc7/Dbf4 Activity
The inhibition assay of Cdc7/Dbf4 activity is performed according to the following protocol. The MCM2 substrate is trans-phosphorylated by the Cdc7/Dbf4 complex in the presence of ATP traced with γ^33-ATP. The reaction is stopped by addition of Dowex resin in the presence of formic acid. Dowex resin particles capture unreacted γ^33-ATP and drag it to the bottom of the well while ^33p phosphorylated MCM2 substrate remains in solution. The supernatant is collected, transferred into Optiplate plates and the extent of substrate phosphorylation is evaluated by β counting.
The inhibition assay of Cdc7/Dbf4 activity was performed in 96 wells plate according to the following protocol.
To each well of the plate were added: • 10 μl test compound (10 increasing concentrations in the nM to μM range to generate a dose-response curve). The solvent for test compounds contained 3% DMSO. (final concentration 1%) • 10 μl substrate MCM2 (6 μM final concentration), a mixture of cold ATP (2 μM final concentration) and radioactive ATP (1/5000 molar ratio with cold ATP). • 10 μl enzyme (Cdc7/Dbf4, 2 nM final concentration) that started the reaction. The buffer of the reaction consisted in 50 mM HEPES pH 7.9 containing 15 mM MgCl2, 2 mM DTT, 3 μM NaVO3, 2 mM glycerophosphate and 0.2 mg/ml BSA.
After incubation for 60 minutes at room temperature, the reaction was stopped by adding to each well 150 μl of Dowex resin in the presence of 150 mM formic acid. After another 60 min incubation, 50 μL of suspension were withdrawn and transferred into 96-well OPTIPLATEs containing 150 μl of MicroScint 40 (Packard); after 5-10 minutes shaking the plates were read for 1 min in a Packard TOP-Count radioactivity reader.
(§1) IC50 determination: inhibitors were tested at different concentrations ranging from 0.0005 to 10 μM. Experimental data were analyzed by the computer program Assay Explorer using the four parameter logistic equation: y=bottom+(top−bottom)/(1+10^((log|C50−x)*slope)) where x is the logarithm of the inhibitor concentration, y is the response; y starts at bottom and goes to top with a sigmoid shape.

Chain of Cdc7/Dbf4 (O00311 whole entry, species assumed): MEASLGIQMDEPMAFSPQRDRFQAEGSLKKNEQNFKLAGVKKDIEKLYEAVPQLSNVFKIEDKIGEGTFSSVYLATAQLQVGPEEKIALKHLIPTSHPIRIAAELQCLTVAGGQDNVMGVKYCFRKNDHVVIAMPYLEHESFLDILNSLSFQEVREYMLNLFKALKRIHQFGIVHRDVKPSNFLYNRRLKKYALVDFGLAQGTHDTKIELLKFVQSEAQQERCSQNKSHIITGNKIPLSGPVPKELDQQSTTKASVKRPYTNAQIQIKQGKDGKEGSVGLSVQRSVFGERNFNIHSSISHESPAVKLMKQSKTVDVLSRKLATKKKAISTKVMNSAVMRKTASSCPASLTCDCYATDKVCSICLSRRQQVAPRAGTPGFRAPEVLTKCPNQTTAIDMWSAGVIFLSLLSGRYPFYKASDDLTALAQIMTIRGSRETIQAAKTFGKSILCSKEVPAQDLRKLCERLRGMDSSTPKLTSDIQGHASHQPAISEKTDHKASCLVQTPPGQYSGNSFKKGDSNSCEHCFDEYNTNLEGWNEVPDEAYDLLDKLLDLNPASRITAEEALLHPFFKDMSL
Chain of Cdc7/Dbf4 (Q9UBU7 whole entry partner, species assumed): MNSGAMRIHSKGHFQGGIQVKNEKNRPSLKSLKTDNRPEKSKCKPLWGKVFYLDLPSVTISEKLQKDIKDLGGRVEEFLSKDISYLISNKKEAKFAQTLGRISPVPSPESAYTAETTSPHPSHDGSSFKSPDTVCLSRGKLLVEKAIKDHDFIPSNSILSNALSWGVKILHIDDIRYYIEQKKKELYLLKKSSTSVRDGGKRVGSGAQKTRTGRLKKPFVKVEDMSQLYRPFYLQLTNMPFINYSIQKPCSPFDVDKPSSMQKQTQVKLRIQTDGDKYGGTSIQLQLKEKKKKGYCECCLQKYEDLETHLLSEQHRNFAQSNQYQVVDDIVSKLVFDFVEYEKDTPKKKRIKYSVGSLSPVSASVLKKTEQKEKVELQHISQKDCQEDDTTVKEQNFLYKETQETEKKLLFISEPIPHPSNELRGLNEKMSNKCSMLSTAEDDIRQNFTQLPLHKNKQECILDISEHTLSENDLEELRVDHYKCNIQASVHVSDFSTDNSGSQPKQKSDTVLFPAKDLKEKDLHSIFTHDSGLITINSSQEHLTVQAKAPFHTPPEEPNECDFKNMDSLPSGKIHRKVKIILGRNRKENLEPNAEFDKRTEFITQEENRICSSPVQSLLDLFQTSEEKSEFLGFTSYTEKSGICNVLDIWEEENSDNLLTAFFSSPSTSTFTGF

Question: How did the pIC50 turn out when `CC1CNC(=O)c2cc(-c3ccnc(N)n3)[nH]c21` (racemic) [2-(2-aminopyrimidin-4-yl)-7-methyl-1,5,6,7-tetrahydro-4H-pyrrolo[3,2-c]pyridin-4-one] was run?
Answer: The pIC50 was 8.10.

Question: With `CC1CNC(=O)c2cc(-c3ccnc(N)n3)[nH]c21` (single isomer, unassigned) [(7R or 7S)-2-(2-aminopyrimidin-4-yl)-7-methyl-1,5,6,7-tetrahydro-4H-pyrrolo[3,2-c]pyridin-4-on] as the molecule, how does the pIC50 read?
Answer: Its pIC50 is 8.40.

Question: With `CC1CNC(=O)c2cc(-c3ccnc(N)n3)[nH]c21` (single isomer, unassigned) [(7R or 7S)-2-(2-aminopyrimidin-4-yl)-7-methyl-1,5,6,7-tetrahydro-4H-pyrrolo[3,2-c]pyridin-4-one] as the molecule, how does the pIC50 read?
Answer: Its pIC50 is 8.30.

Question: `Nc1nccc(-c2cc3c([nH]2)CCNC3=O)n1` [2-(2-aminopyrimidin-4-yl)-1,5,6,7-tetrahydro-4H-pyrrolo[3,2-c]pyridin-4-one hydrochloride] was tested. Which pIC50 did it give?
Answer: The pIC50 was 7.96.

Question: How did the pIC50 turn out when `Nc1nccc(-c2[nH]c3c(c2I)C(=O)NCC3)n1` [2-(2-aminopyrimidin-4-yl)-3-iodo-1,5,6,7-tetrahydro-4H-pyrrolo[3,2-c]pyridin-4-one] was run?
Answer: The pIC50 was 8.40.

Question: How did the pIC50 turn out when `CC1(C)Cc2[nH]c(-c3ccnc(N)n3)cc2C(=O)N1` [2-(2-aminopyrimidin-4-yl)-6,6-dimethyl-1,5,6,7-tetrahydro-4H-pyrrolo[3,2-c]pyridin-4-one hydrochloride] was run?
Answer: Its pIC50 is 7.49.

Question: With `CC(C)CC1Cc2[nH]c(-c3ccnc(N)n3)cc2C(=O)N1` (stereo not shown) [2-(2-aminopyrimidin-4-yl)-6-isobutyl-1,5,6,7-tetrahydro-4H-pyrrolo[3,2-c]pyridin-4-one] as the molecule, how does the pIC50 read?
Answer: Its pIC50 is 8.40.

Question: With `CC(C)C1Cc2[nH]c(-c3ccnc(N)n3)cc2C(=O)N1` (stereo not shown) [2-(2-aminopyrimidin-4-yl)-6-isopropyl-1,5,6,7-tetrahydro-4H-pyrrolo[3,2-c]pyridin-4-one] as the molecule, how does the pIC50 read?
Answer: Its pIC50 is 8.05.

Question: `CC1Cc2[nH]c(-c3ccnc(N)n3)cc2C(=O)N1` (stereo not shown) [2-(2-aminopyrimidin-4-yl)-6-methyl-1,5,6,7-tetrahydro-4H-pyrrolo[3,2-c]pyridin-4-one] was tested. Which pIC50 did it give?
Answer: Its pIC50 is 7.59.

Question: With `CCC1(CC)CNC(=O)c2cc(-c3ccnc(N)n3)[nH]c21` [2-(2-aminopyrimidin-4-yl)-7,7-diethyl-1,5,6,7-tetrahydro-4H-pyrrolo[3,2-c]pyridin-4-one] as the molecule, how does the pIC50 read?
Answer: The pIC50 was 8.15.

Question: `CC1(C)CNC(=O)c2cc(-c3ccnc(N)n3)[nH]c21` [2-(2-aminopyrimidin-4-yl)-7,7-dimethyl-1,5,6,7-tetrahydro-4H-pyrrolo[3,2-c]pyridin-4-one] was tested. Which pIC50 did it give?
Answer: The pIC50 was 8.70.

Question: `CC(C)C1CNC(=O)c2cc(-c3ccnc(N)n3)[nH]c21` (stereo not shown) [2-(2-aminopyrimidin-4-yl)-7-isopropyl-1,5,6,7-tetrahydro-4H-pyrrolo[3,2-c]pyridin-4-one] was tested. Which pIC50 did it give?
Answer: Its pIC50 is 8.10.

Question: How did the pIC50 turn out when `Nc1nccc(-c2cc3c([nH]2)C(c2ccccc2)CNC3=O)n1` (stereo not shown) [2-(2-aminopyrimidin-4-yl)-7-phenyl-1,5,6,7-tetrahydro-4H-pyrrolo[3,2-c]pyridin-4-one hydrochloride] was run?
Answer: Its pIC50 is 7.82.

Question: `O=C1NCC(c2ccccc2)c2[nH]c(-c3ccnc(Nc4ccccc4)n3)cc21` (stereo not shown) [2-(2-anilinopyrimidin-4-yl)-7-phenyl-1,5,6,7-tetrahydro-4H-pyrrolo[3,2-c]pyridin-4-one hydrochloride] was tested. Which pIC50 did it give?
Answer: Its pIC50 is 7.54.

Question: How did the pIC50 turn out when `O=C1NCCc2[nH]c(-c3ccnc(Nc4ccccc4)n3)cc21` [2-(2-phenylaminopyrimidin-4-yl)-1,5,6,7-tetrahydro-4H-pyrrolo[3,2-c]pyridin-4-one hydrochloride] was run?
Answer: Its pIC50 is 8.15.

Question: How did the pIC50 turn out when `O=C1NCCc2[nH]c(-c3ncnc4[nH]cnc34)cc21` [2-(9H-purin-6-yl)-1,5,6,7-tetrahydro-4H-pyrrolo[3,2-c]pyridin-4-one hydrochloride] was run?
Answer: Its pIC50 is 6.70.

Question: How did the pIC50 turn out when `O=C1NCCc2[nH]c(-c3ccnc(NCc4ccccc4)n3)cc21` [2-[2-(benzylamino)pyrimidin-4-yl]-1,5,6,7-tetrahydro-4H-pyrrolo[3,2-c]pyridin-4-one] was run?
Answer: Its pIC50 is 6.57.

Question: With `CCCNc1nccc(-c2cc3c([nH]2)CCNC3=O)n1` [2-[2-(propylamino)pyrimidin-4-yl]-1,5,6,7-tetrahydro4H-pyrrolo[3,2-c]pyridin-4-one] as the molecule, how does the pIC50 read?
Answer: Its pIC50 is 6.51.

Question: How did the pIC50 turn out when `O=C1NCCc2[nH]c(-c3ccncn3)cc21` [2-pyrimidin-4-yl-1,5,6,7-tetrahydro-4H-pyrrolo[3,2-c]pyridin-4-one hydrochloride] was run?
Answer: Its pIC50 is 7.72.

Question: With `O=C1NCCc2[nH]c(-c3ccnc(NCc4ccco4)n3)cc21` [2-{2-[(2-furylmethyl)amino]pyrimidin-4-yl}-1,5,6,7-tetrahydro-4H-pyrrolo[3,2-c]pyridin-4-one] as the molecule, how does the pIC50 read?
Answer: Its pIC50 is 7.13 and 7.06.

Question: With `O=C1NCCc2[nH]c(-c3ccnc(NCC4CCCCC4)n3)cc21` [2-{2-[(cyclohexylmethyl)amino]pyrimidin-4-yl}-1,5,6,7-tetrahydro-4H-pyrrolo[3,2-c]pyridin-4-one] as the molecule, how does the pIC50 read?
Answer: The pIC50 was 6.17.

Question: With `O=C1NCC(c2ccccc2)c2[nH]c(-c3ncnc4[nH]cnc34)cc21` (stereo not shown) [7-phenyl-2-(9H-purin-6-yl)-1,5,6,7-tetrahydro-4H-pyrrolo[3,2-c]pyridin-4-one hydrochloride] as the molecule, how does the pIC50 read?
Answer: Its pIC50 is 7.05.

Question: With `O=C1NCC(c2ccccc2)c2[nH]c(-c3ccncn3)cc21` (stereo not shown) [7-phenyl-2-pyrimidin-4-yl-1,5,6,7-tetrahydro-4H-pyrrolo[3,2-c]pyridin-4-one hydrochloride] as the molecule, how does the pIC50 read?
Answer: Its pIC50 is 7.49.

Question: `O=C(Nc1nccc(-c2cc3c([nH]2)CCNC3=O)n1)c1ccccc1` [N-[4-(4-oxo-4,5,6,7-tetrahydro-1H-pyrrolo[3,2-c]pyridin-2-yl)pyrimidin-2-yl]benzamide] was tested. Which pIC50 did it give?
Answer: Its pIC50 is 6.52.

Question: How did the pIC50 turn out when `CC(=O)Nc1ccc(CNc2nccc(-c3cc4c([nH]3)CCNC4=O)n2)cc1` [N-[4-({[4-(4-oxo-4,5,6,7-tetrahydro-1H-pyrrolo[3,2-c]pyridin-2-yl)pyrimidin-2-yl]amino}methyl)phenyl]acetamide trifluoroacetate] was run?
Answer: The pIC50 was 6.52.

Question: How did the pIC50 turn out when `CCOC(=O)Nc1nccc(-c2cc3c([nH]2)CCNC3=O)n1` [ethyl 4-(4-oxo-4,5,6,7-tetrahydro-1H-pyrrolo[3,2-c]pyridin-2-yl)pyrimidin-2-ylcarbamate] was run?
Answer: Its pIC50 is 7.10.

Biological target: cdk2/Cyclin A (Homo sapiens, UniProt P24941)
Test: Inhibition assay of cdk2/Cyclin A activity (SPA, biotinylated histone H1)
Format: biochemical
Conditions: histone H1 4 μM, ATP 10 μM, Cyclin A/CDK2 1.1 nM, 60 min at room temperature
Method: The inhibiting activity of putative cdk/cyclin inhibitors and the potency of selected compounds may be determined through a method of assay based on the use of the SPA technology (Amersham Pharmacia Biotech).
The assay consists of the transfer of radioactivity labelled phosphate moiety by the kinase to a biotinylated substrate. The resulting 33P-labelled biotinylated product is allowed to bind to streptavidin-coated SPA beads (biotin capacity 130 pmol/mg), and light emitted was measured in a scintillation counter.
Inhibition Assay of cdk2/Cyclin A Activity
Kinase reaction: 4 μM in house biotinylated histone H1 (Sigma # H-5505) substrate, 10 μM ATP (0.1 microCi P^33γ-ATP), 1.1 nM Cyclin A/CDK2 complex, inhibitor in a final volume of 30 μl buffer (TRIS HCl 10 mM pH 7.5, MgCl2 10 mM, DTT 7.5 mM+0.2 mg/ml BSA) were added to each well of a 96 U bottom. After incubation for 60 min at room temperature, the reaction was stopped by addition of 100 μl PBS buffer containing 32 mM EDTA, 500 μM cold ATP, 0.1% Triton X100 and 10 mg/ml streptavidin coated SPA beads. After 20 min incubation, 110 μL of suspension were withdrawn and transferred into 96-well OPTIPLATEs containing 100 μl of 5M CsCl. After 4 hours, the plates were read for 2 min in a Packard TOP-Count radioactivity reader.
as §1, with “0.0015” for “0.0005”, “GraphPad Prizm” for “Assay Explorer”, “y=bottom+(top−bottom)/(1+10^((loglC50−x)*slope))” for “y=bottom+(top−bottom)/(1+10^((log|C50−x)*slope))”

Question: `CC(C)CNc1nccc(-c2cc3c([nH]2)CCNC3=O)n1` [2-[2-(isobutylamino)pyrimidin-4-yl]-1,5,6,7-tetrahydro-4H-pyrrolo[3,2-c]pyridin-4-one] was tested. Which pIC50 did it give?
Answer: The pIC50 was 7.30.

Question: With `CCCNc1nccc(-c2cc3c([nH]2)CCNC3=O)n1` [2-[2-(propylamino)pyrimidin-4-yl]-1,5,6,7-tetrahydro4H-pyrrolo[3,2-c]pyridin-4-one] as the molecule, how does the pIC50 read?
Answer: The pIC50 was 7.46.

Question: How did the pIC50 turn out when `O=C1NCCc2[nH]c(-c3ccnc(NCc4ccco4)n3)cc21` [2-{2-[(2-furylmethyl)amino]pyrimidin-4-yl}-1,5,6,7-tetrahydro-4H-pyrrolo[3,2-c]pyridin-4-one] was run?
Answer: Its pIC50 is 7.10.

Question: With `O=C1NCCc2[nH]c(-c3ccnc(NCC4CCCCC4)n3)cc21` [2-{2-[(cyclohexylmethyl)amino]pyrimidin-4-yl}-1,5,6,7-tetrahydro-4H-pyrrolo[3,2-c]pyridin-4-one] as the molecule, how does the pIC50 read?
Answer: The pIC50 was 6.66.

Question: With `CC(=O)Nc1ccc(CNc2nccc(-c3cc4c([nH]3)CCNC4=O)n2)cc1` [N-[4-({[4-(4-oxo-4,5,6,7-tetrahydro-1H-pyrrolo[3,2-c]pyridin-2-yl)pyrimidin-2-yl]amino}methyl)phenyl]acetamide trifluoroacetate] as the molecule, how does the pIC50 read?
Answer: Its pIC50 is 7.70.
